# Reference: PMC4604100, “Melanocortin agonists stimulate lipolysis in human adipose tissue explants but not in adipocytes” (BMC Research Notes, 2015)
# “Also recorded” adds a separate entry of the source. Where no end group is shown, it is not given here.
# Legend:
# MC4R over MC3R = settings: factor; ref [46] Greenfield et al.; cited from earlier work
# human MCRs = assay: Binding rank order across human MCRs; settings: order of affinity
# Protocol: (§1) The human MC1R, MC3R, MC4R and MC5R were cloned by PCR and subcloned into the pcDNA3 expression vector, as previously described by Conde-Frieboes et al.. Cells stably expressing the human MCRs were generated by transfecting the expression vector into BHK570 cells (ATTC) and using 1 mg/mL G418 to select for stable clones. The stable cell lines were cultured in DMEM with glutamax, 10 % FCS, 1 % pen/strep, and 1 mg/mL G418 at 37 °C and 5 % CO2. […] Test compounds were dissolved to a 4 mM concentration in DMSO and diluted in a receptor specific binding buffer. […] A filtration system was employed to separate bound from unbound radioligand.
# (§2) Data analysis and statistics
# [1] = tested on: intact human white adipose tissue explants; assay: Glycerol release in human WAT explants (lipolysis); type: cell-based; settings: subcutaneous explants from non-obese females, 100 nM–10 μM, 3 h; mean of 2 independent experiments in triplicate wells
# Protocol: (§3) Adipose tissue biopsies used for stimulation of lipolysis were taken from the subcutaneous abdominal region by needle aspiration as previously described. The experimental group consisted of 6 non-diabetic females with a normal/preobese BMI (average BMI = 25.5). All biopsies were transported in sterile containers to the laboratory within 30 min after removal. The biopsies were washed repeatedly with isotonic saline and were used for subsequent culture.
# Induction of NEFA and glycerol release in adipocytes and intact adipose tissue explants was used as a measure of lipolysis with β-adrenergic agonist isoproterenol as a positive control as previously described. When using propranolol, 10 μM was used as final concentration. 250 mg of human adipose tissue was placed in 15 mL tubes, immediately covered with 2.5 mL of preheated (37 °C) hyclone media and preincubated for 24 h. After 24 h, the media was replenished and explants were stimulated with the indicated melanocortin peptide for 3 h before harvesting the supernatant for NEFA and glycerol analysis. In house testing has shown no indications of hypoxia when stimulating explants (data not shown). All test compounds were dissolved to 4 mM in DMSO (highest DMSO concentration of 0.25 % in the assay) and diluted in DPBS buffer + 2 % bovine serum albumin (BSA). Human subcutaneous adipocytes purchased from Zenbio Inc., were used in stimulation of lipolysis (n = 4). These adipocytes have been isolated from obese males. When receiving the cells (and partially during transportation), the cells was differentiated from a pre-state to a mature state before the cells are used for experiments. […]
# (§4) Data from the NEFA and the glycerol assay were obtained using the protocol supplied by the manufactures. Released NEFAs were analyzed in Graphpad Prism and one-tailed t test was used to calculate statistical significance between 2 groups (*p < 0.05, **p < 0.01, ***p < 0.001, no * indicates insignificance). Ki values in bindings studies were calculated as Ki = IC50/1 + [radioligand]/Kd. Data from binding studies was analyzed in Graphpad Prism.
# MC4R over MC1R = settings: factor; ref [46] Greenfield et al.; cited from earlier work
# [2] = tested on: intact human white adipose tissue explants; assay: NEFA release in human WAT explants (lipolysis); type: cell-based; settings: for increase in NEFA release compared to vehicle: 100 nM, 3 h stimulation, mean of 6 (α-MSH 3) independent experiments in triplicate wells; for increase in NEFA release compared to vehicle / stimulation of NEFA release / lipolysis (in words): subcutaneous explants from non-obese females; for Emax of lipolysis compared to isoproterenol (in words): intact human WAT explants; for stimulation of NEFA release / lipolysis (in words): 100 nM–10 μM, 3 h, one-tailed t test vs. vehicle
# Protocol: as §3
# (§5) Induction of NEFA and glycerol release in adipocytes and intact adipose tissue explants was used as a measure of lipolysis with β-adrenergic agonist isoproterenol as a positive control as previously described. When using propranolol, 10 μM was used as final concentration. 250 mg of human adipose tissue was placed in 15 mL tubes, immediately covered with 2.5 mL of preheated (37 °C) hyclone media and preincubated for 24 h. After 24 h, the media was replenished and explants were stimulated with the indicated melanocortin peptide for 3 h before harvesting the supernatant for NEFA and glycerol analysis. In house testing has shown no indications of hypoxia when stimulating explants (data not shown). All test compounds were dissolved to 4 mM in DMSO (highest DMSO concentration of 0.25 % in the assay) and diluted in DPBS buffer + 2 % bovine serum albumin (BSA). Human subcutaneous adipocytes purchased from Zenbio Inc., were used in stimulation of lipolysis (n = 4). These adipocytes have been isolated from obese males. When receiving the cells (and partially during transportation), the cells was differentiated from a pre-state to a mature state before the cells are used for experiments. The cells were handled according to the description from ZenBio Inc. Two hours was chosen as the optimal incubation time span for primary adipocytes, based on similar experiments in other species. […] Measures of melanocortin-stimulated glycerol release were added in explant lipolysis studies.
# as §4
# [3] = tested on: human subcutaneous adipocytes; assay: NEFA release in differentiated human subcutaneous adipocytes; type: cell-based; settings: for stimulation of NEFA release (in words): human subcutaneous adipocytes (ZenBio, obese males), 1 pM–10 μM, n = 4
# Protocol: as §5, §4
# MC3R = settings: antagonist; ref [47]; cited from earlier work
# MC5R = settings: agonist; ref [47]; cited from earlier work
# hMC1R = target: T1, hMC1R (Homo sapiens, UniProt Q01726); assay: Competition binding of 125I-NDP-α-MSH to membranes of BHK570 cells expressing hMC1R; settings: competition with fixed 125I-NDP-α-MSH, test compound 1 pM–10 μM, filtration, average of repeated independent experiments ± SEM, n = 3 (α-MSH n = 18)
# T1 construct: expressed in transfected cells
# Protocol: as §1, §2
# [4] = tested on: human white adipose tissue (WAT) explants; assay: NEFA release in human WAT explants ± propranolol; type: cell-based
# Protocol: as §3, §5, §4
# WAT = tested on: WAT; design: method as in earlier work; settings: intranasal administration; ref [50] Wellhöner et al.; cited from earlier work
# Excerpt: However, it should be taken into account, that there may be downstream MCR mechanisms of propranolol that are unknown, which is a precaution using this antagonist. Depleting the explants with reserpine before stimulation could add additional confidence to the ...
# [5] = tested on: mesenchymal stem cell-derived adipocytes; settings: ref [52] Hoch et al.; cited from earlier work
# Excerpt: (§6) The lack of lipolytic response seen in adipocytes is supported by previous studies by Hoch et al. [[5 ...
# [6] = tested on: mesenchymal stem cell-derived adipocytes; intact adipose tissue explants; settings: mesenchymal stem cell-derived adipocytes or intact adipose tissue explants; ref [52] Hoch et al.; cited from earlier work
# Excerpt: as §6
# rabbit adipocytes = settings: ref [39] Richter et al.; cited from earlier work
# Excerpt: MC5R is extensively distributed in the periphery, and is reported to regulate sebaceous gland secretion and fatty acid oxidation in skeletal muscle. The melanocortin system has a well-established lipolytic effect in rodent adipose tissues. Studies in murine primary adipocytes and differentiated 3T3-L1 adipocytes show a direct lipolytic effect of MC2R and MC5R when stimulated by various endogenous and synthetic melanocortin agonists.
# primary mouse adipocytes = settings: mediated by MC2R and MC5R, ref [35], [37], [38]; cited from earlier work
# Excerpt: as §6
# [7] = tested on: adipocytes or intact human adipose tissue; settings: own finding "supported by other studies", ref [51], [52]; cited from earlier work
# Excerpt: (§7) ACTH is a larger peptide than both α-MSH and the synthetic melanocortin compounds used in this study.
# [8] = tested on: adipocytes isolated from subcutaneous adipose tissue; settings: adipocytes isolated from subcutaneous adipose tissue of non-diabetic human; ref [53] Xue et al.; cited from earlier work
# Excerpt: as §7
# T1 sequence (Q01726 whole entry): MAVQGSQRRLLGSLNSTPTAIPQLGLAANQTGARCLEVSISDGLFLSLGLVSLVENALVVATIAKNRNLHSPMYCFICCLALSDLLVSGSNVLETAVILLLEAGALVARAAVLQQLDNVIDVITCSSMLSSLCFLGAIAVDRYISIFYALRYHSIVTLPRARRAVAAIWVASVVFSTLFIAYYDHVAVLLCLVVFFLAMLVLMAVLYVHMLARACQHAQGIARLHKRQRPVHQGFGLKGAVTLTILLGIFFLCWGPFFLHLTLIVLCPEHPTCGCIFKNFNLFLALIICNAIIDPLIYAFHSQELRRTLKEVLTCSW
compound,measurement,setting,value
CC(=O)N[C@H](CCCNC(=N)N)C(=O)N[C@H]1CSSC[C@@H](C(N)=O)NC(=O)[C@H](Cc2c[nH]c3ccccc23)NC(=O)[C@H](CCCNC(=N)N)NC(=O)[C@@H](Cc2ccccc2)NC(=O)[C@H](Cc2c[nH]cn2)NC(=O)[C@H](CCC(=O)O)NC1=O [LY2112688],increased affinity for MC4R over MC3R,MC4R over MC3R,more than 100
same,binding rank order,human MCRs,MC4R > MC3R > MC1R
same,stimulation of glycerol release (in words),[1],stimulated release of glycerol
same,increased affinity for MC4R over MC1R,MC4R over MC1R,more than 30
same,increase in NEFA release compared to vehicle,[2],46%
same,Emax of lipolysis compared to isoproterenol (in words),[2],relatively lower Emax
same,stimulation of NEFA release / lipolysis (in words),[2],"significantly stimulated lipolysis; also recorded: stimulated a low, though significant, release of NEFA; also recorded: significantly stimulate release of NEFA"
same,stimulation of NEFA release (in words),[3],failed to stimulate NEFA release
CCCC[C@H](NC(C)=O)C(=O)N[C@H]1CC(=O)NCCCC[C@@H](C(N)=O)NC(=O)[C@H](Cc2c[nH]c3ccccc23)NC(=O)[C@H](CCCNC(=N)N)NC(=O)[C@@H](Cc2ccc3ccccc3c2)NC(=O)[C@@H]2CCCN2C1=O [PG-901],binding to MC3R (in words),MC3R,high affinity
same,stimulation of glycerol release (in words),[1],stimulated release of glycerol
same,binding to MC5R (in words),MC5R,high affinity
same,increase in NEFA release compared to vehicle,[2],38%
same,Emax of lipolysis compared to isoproterenol (in words),[2],relatively lower Emax
same,stimulation of NEFA release / lipolysis (in words),[2],"significantly stimulated lipolysis; also recorded: stimulated a low, though significant, release of NEFA; also recorded: significantly stimulate release of NEFA"
same,Ki,hMC1R,2700 ± 153 nM
same,stimulation of NEFA release (in words),[3],failed to stimulate NEFA release
CC(C)NCC(O)c1ccc(O)c(O)c1 (stereo not drawn) [isoproterenol],increase in NEFA release compared to vehicle,[2],114%
same,stimulation of NEFA release / lipolysis (in words),[2],potent release of NEFA
same,stimulation of NEFA release (in words),[3],potent release of NEFA
CC(C)NCC(O)COc1cccc2ccccc12 (stereo not drawn) [propranolol],decrease of LY2112688-stimulated NEFA release (in words),"[4]; 10 μM propranolol + LY2112688 (100 nM–10 μM), female human subcutaneous explants, 3 independent experiments in triplicate wells",did not significantly decrease the release of NEFA
same,decrease of PG-901-stimulated NEFA release (in words),"[4]; 10 μM propranolol + PG-901 (100 nM–10 μM), female human subcutaneous explants, 3 independent experiments in triplicate wells",significantly decreased the release of NEFA
same,decrease of isoproterenol-stimulated NEFA release (in words),"[4]; 10 μM propranolol + isoproterenol, female human subcutaneous explants, 3 independent experiments in triplicate wells",significantly decreased the release of NEFA
same,inhibition of NEFA release on co-incubation (in words),"[4]; propranolol co-incubation, MC4R/MC5R-mediated lipolysis, overview figure",inhibits NEFA release
"MSH/ACTH(4-10): intranasally administered melanocortin fragment in Wellhöner et al. (MEHFRWG; Corticotropin; UniProt P01189 141-147, looked up, fragment)",glycerol concentrations in WAT (in words),WAT,increased glycerol concentrations in WAT
NDP-α-MSH,cAMP response (in words),[5],weak cAMP response
same,effect on lipolysis (in words),[6],did not find an effect on lipolysis
SYSMEHFRWGKPVGKKRRPVKVYPNGAEDESAEAFPLEF [ACTH],effect on lipolysis (in words),rabbit adipocytes,direct effect
same,binding rank order,human MCRs,MC1R > MC4R > MC3R > MC5R
same,stimulation of glycerol release (in words),[1],failed to stimulate NEFA and glycerol release
same,lipolytic capacity (in words),[2]; intact human adipose tissue,no lipolytic capacity
same,stimulation of NEFA release / lipolysis (in words),[2],failed to stimulate NEFA
same,lipolytic capacity (in words),primary mouse adipocytes,lipolytic capacity
same,lipolytic capacity (in words),[7],no lipolytic capacity
same,stimulation of lipolysis (in words),[8],stimulated lipolysis
same,lipolytic capacity (in words),[3]; adipocytes,no lipolytic capacity
same,stimulation of NEFA release (in words),[3],failed to stimulate NEFA release
